Where “and” joins values, the source holds several entries; their conditions need not be identical. Equal values may be shown once.
Experiments:
MELK = target: T1, MELK (Homo sapiens, UniProt Q14680); test: MELK kinase assay (KinaseGLO); assay type: biochemical
T1 construct: purchased Invitrogen or Millipore
Protocol: (§1) Compound Preparation: KinaseGLO assay: 30× stocks of inhibitors were prepared in DMSO. A 10 mM master stock was prepared and all other stocks were generated by serial dilution of this master stock in DMSO. The final concentration of DMSO in the kinase reaction was 3.3% (v/v).
MELK kinase assay: The ability of compounds to inhibit MELK was also determined using the KinaseGLO assay. Briefly, MELK enzymes was thawed and diluted to a final concentration of 2.64 ng/μL in reaction buffer (50 mM HEPES, pH7.5, 100 mM NaCl, 2.0 mM DTT, 3.0 mM MgCl2, 1.0 mM EGTA, 10 μM ATP). 19 μl of this kinase reaction mixture was aliquoted into test wells (50 ng MELK/well) in a Microfluor2 white 96-well plate (Thermo Scientific). As a preincubation step, 1 μl of 30× compound dilutions was added to the appropriate test wells to generate a ten point dose-response ranging from 0.0 μM-10 μM inhibitor, and incubated for 15 minutes at 4° C. The reaction was started by addition of 10 μL of 150 μM ZIPtide peptide substrate resuspended in reaction buffer (50 μM final concentration of ZIPtide). Reactions were incubated at room temperature for 2 hours prior to addition of 30 μL of KinaseGLO reagent and development as described. Maximal luminescence (no MELK activity/maximal MELK inhibition) was determined from reaction buffer plus peptide substrate only controls. The minimal signal (maximal MELK activity) was determined by the 0.0 μM compound (DMSO only) control. IC50 values were calculated via non-linear regression using GraphPad Prism data analysis software. […]
(§2) Compounds of the invention were assayed against the select kinases using the KinaseGLO assay (MELK) or the radiometric assay (PIM, TRKC, PDGFRα(D842V), MNK1 and mTOR). IC50 values were determined using 8-10 point half-log dose dilutions and calculated via nonlinear regression analysis using Graphpad Prism data analysis software.

PIM-1 = PIM-1 (Homo sapiens, UniProt P11309); test: Radiometric HotSpot kinase assay, PIM-1; assay type: biochemical; conditions: 1 μM compound, 10 μM ATP
Chain of PIM-1 (P11309 whole entry): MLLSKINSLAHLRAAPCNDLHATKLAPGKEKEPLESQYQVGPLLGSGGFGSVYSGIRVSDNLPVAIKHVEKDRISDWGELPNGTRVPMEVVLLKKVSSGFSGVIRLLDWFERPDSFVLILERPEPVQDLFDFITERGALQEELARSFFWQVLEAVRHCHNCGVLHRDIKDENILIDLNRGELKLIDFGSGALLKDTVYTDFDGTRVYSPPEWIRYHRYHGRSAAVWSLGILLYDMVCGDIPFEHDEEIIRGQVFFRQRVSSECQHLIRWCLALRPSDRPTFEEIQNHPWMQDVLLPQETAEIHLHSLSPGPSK
Protocol: (§3) Kinase Profiling: The inhibitory activity of the PI3K inhibitor compounds of the invention against 250 protein kinases was determined via the radiometric HotSpot Kinase Profiling (Reaction Biology Corporation, Malvern, Pa.). Compounds were profiled at a final concentration of 1 μM compound against recombinant protein kinases in the presence of 10 μM ATP and data were expressed as percent inhibition. IC50 and/or percent inhibition at 1 μM compound values were determined for select compounds against a subset of kinases (MELK, MNK1, MNK2, mTOR, PIM-1. TRKC, and PDGFRα(D842V)).
as §2

TRKC = TRKC (Homo sapiens, UniProt Q16288); test: Radiometric HotSpot kinase assay, TRKC; assay type: biochemical; conditions: 1 μM compound, 10 μM ATP
Chain of TRKC (Q16288 32-839): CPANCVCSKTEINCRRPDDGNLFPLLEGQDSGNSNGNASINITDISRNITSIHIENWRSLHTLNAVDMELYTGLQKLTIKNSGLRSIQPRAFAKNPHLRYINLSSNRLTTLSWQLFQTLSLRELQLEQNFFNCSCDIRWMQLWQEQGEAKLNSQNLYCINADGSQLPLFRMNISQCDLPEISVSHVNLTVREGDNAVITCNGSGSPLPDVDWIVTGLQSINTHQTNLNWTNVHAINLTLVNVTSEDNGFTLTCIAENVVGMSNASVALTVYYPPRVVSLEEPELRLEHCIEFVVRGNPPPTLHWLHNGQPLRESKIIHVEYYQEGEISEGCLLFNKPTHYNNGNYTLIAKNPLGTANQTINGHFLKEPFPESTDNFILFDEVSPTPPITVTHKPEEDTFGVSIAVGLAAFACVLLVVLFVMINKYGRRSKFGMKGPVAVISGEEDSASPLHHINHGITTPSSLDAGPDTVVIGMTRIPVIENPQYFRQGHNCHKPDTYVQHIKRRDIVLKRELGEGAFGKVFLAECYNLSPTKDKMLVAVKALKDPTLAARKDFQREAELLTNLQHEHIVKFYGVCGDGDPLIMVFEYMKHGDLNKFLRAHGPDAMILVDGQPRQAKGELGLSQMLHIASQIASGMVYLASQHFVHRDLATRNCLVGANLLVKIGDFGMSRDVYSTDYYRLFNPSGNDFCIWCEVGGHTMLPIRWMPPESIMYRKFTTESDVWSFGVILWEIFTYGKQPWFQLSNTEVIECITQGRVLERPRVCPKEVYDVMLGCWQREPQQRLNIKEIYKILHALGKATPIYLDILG
Protocol: as §3, §2

PI3Kα = target: T2, PI3Kα (Homo sapiens, UniProt P42336); test: KinaseGLO luminescent PI3-kinase assay, PI3Kα; assay type: biochemical
T2 construct: purchased Invitrogen or Millipore
T2 sequence (P42336 whole entry): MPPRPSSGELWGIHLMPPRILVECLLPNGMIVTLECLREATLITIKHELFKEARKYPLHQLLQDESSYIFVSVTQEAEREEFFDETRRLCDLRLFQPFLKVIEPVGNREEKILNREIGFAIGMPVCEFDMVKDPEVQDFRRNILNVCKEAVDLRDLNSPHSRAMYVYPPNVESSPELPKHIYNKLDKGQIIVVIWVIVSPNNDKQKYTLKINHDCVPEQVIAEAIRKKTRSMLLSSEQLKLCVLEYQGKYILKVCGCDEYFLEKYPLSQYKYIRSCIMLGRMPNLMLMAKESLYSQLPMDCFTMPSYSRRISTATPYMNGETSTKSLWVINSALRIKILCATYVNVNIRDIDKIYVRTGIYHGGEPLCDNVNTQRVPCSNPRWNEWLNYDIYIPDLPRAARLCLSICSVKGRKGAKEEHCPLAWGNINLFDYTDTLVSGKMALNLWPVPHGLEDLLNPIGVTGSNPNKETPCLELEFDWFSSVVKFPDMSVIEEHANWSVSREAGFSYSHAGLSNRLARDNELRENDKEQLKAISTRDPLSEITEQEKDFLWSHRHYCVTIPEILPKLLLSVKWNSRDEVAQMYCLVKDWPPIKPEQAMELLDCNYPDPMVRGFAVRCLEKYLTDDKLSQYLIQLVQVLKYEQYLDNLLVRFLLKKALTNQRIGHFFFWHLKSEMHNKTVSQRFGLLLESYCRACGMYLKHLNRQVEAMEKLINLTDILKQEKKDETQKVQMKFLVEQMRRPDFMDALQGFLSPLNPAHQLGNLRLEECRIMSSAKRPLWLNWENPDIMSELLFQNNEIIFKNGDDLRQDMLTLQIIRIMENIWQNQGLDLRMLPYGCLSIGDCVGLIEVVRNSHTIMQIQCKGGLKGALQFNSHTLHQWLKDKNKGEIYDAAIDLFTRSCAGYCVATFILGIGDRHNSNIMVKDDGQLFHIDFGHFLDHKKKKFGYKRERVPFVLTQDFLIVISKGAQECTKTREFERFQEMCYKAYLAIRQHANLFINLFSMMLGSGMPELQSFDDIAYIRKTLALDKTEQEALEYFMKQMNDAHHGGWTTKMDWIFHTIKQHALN
T2 sequence (P27986 whole entry partner): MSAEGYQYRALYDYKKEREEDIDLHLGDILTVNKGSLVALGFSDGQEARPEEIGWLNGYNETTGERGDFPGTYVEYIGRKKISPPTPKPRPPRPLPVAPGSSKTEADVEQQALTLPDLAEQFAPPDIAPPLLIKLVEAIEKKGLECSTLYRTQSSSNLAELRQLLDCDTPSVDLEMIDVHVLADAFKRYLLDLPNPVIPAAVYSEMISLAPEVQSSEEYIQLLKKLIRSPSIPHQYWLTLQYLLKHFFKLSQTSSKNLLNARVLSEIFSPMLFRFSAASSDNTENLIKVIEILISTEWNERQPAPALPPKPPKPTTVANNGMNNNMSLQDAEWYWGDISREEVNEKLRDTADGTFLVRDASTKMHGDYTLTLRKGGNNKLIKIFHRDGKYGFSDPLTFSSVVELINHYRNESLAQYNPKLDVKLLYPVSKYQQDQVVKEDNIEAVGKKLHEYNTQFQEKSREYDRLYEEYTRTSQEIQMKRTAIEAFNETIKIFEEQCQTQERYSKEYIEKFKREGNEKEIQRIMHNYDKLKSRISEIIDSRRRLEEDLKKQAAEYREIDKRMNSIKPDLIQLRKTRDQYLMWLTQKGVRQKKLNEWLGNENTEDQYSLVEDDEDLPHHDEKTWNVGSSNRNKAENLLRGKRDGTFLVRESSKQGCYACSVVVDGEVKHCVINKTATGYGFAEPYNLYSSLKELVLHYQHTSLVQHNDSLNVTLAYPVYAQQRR
Protocol: as §1
PI3-Kinase Assay: The KinaseGLO® Luminescent Kinase Assay (Promega) is a luciferin-luciferase based luminescent assay that utilizes a proprietary thermostable luciferase to quantify the ATP remaining in a solution after a kinase reaction. The luminescent signal generated using KinaseGLO® directly correlates with ATP concentration, and therefore inversely correlates with kinase activity.
PI3K enzyme sample was thawed and diluted to 100 ng/μL in enzyme dilution buffer (50 mM HEPES, pH7.5, 3.0 mM MgCl2, 1.0 mM EGTA) and stored on ice. PI3Kα enzyme was diluted to a final concentration of 1 ng/μL in reaction buffer (for PI3Kα; 50 mM HEPES, pH7.5, 100 mM NaCl, 2.0 mM DTT, 3.0 mM MgCl2, 1.0 mM EGTA, 10 μM ATP) and gently mixed. 25 μL of this kinase reaction was then aliquoted into test wells in a Microfluor2 white 96-well plate (Thermo Scientific). As a preincubation step, 1 μl of 30× compound dilutions was added to the appropriate test wells to generate a ten point dose-response ranging from 0.0 μM-10 μM inhibitor. The enzyme-inhibitor mixture was then incubated for 30 minutes at 4° C. After this preincubation, […] (50 μM final concentration) was added to each test well to initiate the kinase reaction. Reactions were incubated at room temperature for 2 hours with moderate shaking. The KinaseGLO® luminescent reagent (Promega) was prepared according to the manufacturer's instructions. Both the KinaseGLO® buffer and substrate were allowed to thaw and equilibrate at room temperature for two hours prior to mixing and use. The PI3-kinase reaction was terminated by the addition of 30 μL of reconstituted KinaseGLO® reagent to each reaction well and then incubated in the dark for 10 minutes at room temperature. Luminescent signal was detected using a SpectraMax M5 (Molecular Devices). Maximal luminescence (no PI3K activity/maximal PI3K inhibition) was determined from reaction buffer plus SC-PI substrate only controls. The minimal signal (maximal PI3K activity) was determined by the 0.0 μM compound (DMSO only) control. IC50 values were calculated via non-linear regression using GraphPad Prism data analysis software.
Compounds were assayed against the Class I PI3Kα, PI3Kβ, PI3Kγ, PI3Kδ, PI3Kα(H1047R) and PI3Kα(E545K) in the KinaseGLO assay as described in Example 2, and against the Class IV PI3K mTOR in the radiometric assay. IC50 values (μM) were determined using 8-10 point half-log dose dilutions and calculated via nonlinear regression analysis using Graphpad Prism data analysis software.

PDGFRα(D842V) = PDGFRα(D842V) (Homo sapiens, UniProt P16234, D842V); test: Radiometric HotSpot kinase assay, PDGFRα(D842V); assay type: biochemical
Chain of PDGFRα(D842V) (P16234 24-1089 D842V): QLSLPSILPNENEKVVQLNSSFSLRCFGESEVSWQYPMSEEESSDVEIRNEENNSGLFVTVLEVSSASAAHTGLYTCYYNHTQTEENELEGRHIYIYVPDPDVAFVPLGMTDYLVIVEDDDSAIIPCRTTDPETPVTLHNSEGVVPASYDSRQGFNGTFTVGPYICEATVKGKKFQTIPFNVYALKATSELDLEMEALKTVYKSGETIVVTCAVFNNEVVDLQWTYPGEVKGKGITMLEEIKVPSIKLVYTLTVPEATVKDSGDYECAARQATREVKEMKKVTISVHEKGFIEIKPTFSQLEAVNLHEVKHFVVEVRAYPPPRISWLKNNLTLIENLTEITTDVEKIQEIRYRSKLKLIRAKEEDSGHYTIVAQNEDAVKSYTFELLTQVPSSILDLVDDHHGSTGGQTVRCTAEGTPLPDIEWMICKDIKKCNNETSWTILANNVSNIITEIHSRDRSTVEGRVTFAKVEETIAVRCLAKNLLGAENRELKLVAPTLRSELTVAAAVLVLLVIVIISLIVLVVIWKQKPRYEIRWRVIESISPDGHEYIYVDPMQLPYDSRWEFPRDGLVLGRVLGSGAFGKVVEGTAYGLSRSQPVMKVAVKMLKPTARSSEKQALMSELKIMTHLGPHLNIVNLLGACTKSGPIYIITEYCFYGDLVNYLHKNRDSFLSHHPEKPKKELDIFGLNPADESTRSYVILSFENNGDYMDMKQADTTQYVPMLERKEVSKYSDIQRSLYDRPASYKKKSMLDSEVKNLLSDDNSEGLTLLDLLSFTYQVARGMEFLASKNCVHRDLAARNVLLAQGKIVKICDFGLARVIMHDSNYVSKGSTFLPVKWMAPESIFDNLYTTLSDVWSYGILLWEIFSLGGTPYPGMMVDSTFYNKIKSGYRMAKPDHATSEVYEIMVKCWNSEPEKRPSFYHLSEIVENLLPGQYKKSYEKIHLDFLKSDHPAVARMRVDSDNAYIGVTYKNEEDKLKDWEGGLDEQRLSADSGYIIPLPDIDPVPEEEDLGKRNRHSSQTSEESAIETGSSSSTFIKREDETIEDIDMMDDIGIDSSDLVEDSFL
Protocol: as §3, §2

[1] = tested on: HCT116 colorectal carcinoma cells; test: Caspase-GLO 3/7 assay, HCT116; assay type: cell-based; conditions: Homo sapiens, HCT-116, 24 hours, CaspaseGLO
Protocol: Caspase-GLO 3/7 Assay: To determine the ability of the PI3K inhibitor compounds of the invention to induce programmed cell death (apoptosis), caspase activity was monitored as an indicator of apoptosis. Human HCT116 colorectal carcinoma and PANC-1 pancreatic carcinoma cells were plated at 2000-8000 cells per well in white 96-well microplates and allowed to attach overnight. The following day the medium was removed by aspiration and the cells were washed once with 200 μL of DMEM containing 0.5% (v/v) FBS (assay medium). The cells were then incubated in 100 μL of assay medium containing increasing concentrations of the PI3K inhibitor compounds (from 0.003 μM to 10.0 μM in half-log dilutions) for 24 to 72 hours. Caspase activity was detected using the Caspase-GLO 3/7 assay (Promega) according to the manufacturer's instructions and measured on a Spectramax M5 multi-detection microplate reader (Molecular Devices Corp.). EC50 values were calculated via non-linear regression using GraphPad Prism data analysis software.
HCT116 cells were treated overnight with a pyrazoloquinoline compound of the invention, or with a commercially available dual PI3K(α,β,δ,γ)/mTOR inhibitor, or with a commercially available PI3K(α,β,δ,γ)-only inhibitor at concentrations of 0.5, 1.0 and 5.0 μM.

T1 sequence (Q14680 whole entry): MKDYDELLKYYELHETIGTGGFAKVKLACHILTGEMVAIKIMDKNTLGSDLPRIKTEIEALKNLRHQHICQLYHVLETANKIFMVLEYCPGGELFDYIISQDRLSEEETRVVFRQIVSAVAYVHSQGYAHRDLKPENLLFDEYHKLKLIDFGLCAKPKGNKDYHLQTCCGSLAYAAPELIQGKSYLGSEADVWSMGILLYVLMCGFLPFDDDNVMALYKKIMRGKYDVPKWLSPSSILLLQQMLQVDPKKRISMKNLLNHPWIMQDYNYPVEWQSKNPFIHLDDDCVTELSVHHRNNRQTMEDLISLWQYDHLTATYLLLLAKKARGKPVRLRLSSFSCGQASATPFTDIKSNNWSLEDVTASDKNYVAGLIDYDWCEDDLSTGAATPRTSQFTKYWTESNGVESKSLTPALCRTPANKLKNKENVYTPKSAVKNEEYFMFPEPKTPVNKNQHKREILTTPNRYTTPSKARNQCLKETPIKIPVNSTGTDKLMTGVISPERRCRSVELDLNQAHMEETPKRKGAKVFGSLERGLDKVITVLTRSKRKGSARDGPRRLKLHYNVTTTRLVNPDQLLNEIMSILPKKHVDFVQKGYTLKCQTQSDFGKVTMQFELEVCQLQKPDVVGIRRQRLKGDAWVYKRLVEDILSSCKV

Row | Compound | IC50 (MELK) | inhibition at 1 µM (PIM-1) [%] | inhibition at 1 µM (TRKC) [%] | IC50 (PI3Kα) [µM] | IC50 (PDGFRα(D842V)) [µM] | EC50 [1] [µM]
1 | CC(C)(C#N)c1ccc(-c2n[nH]c3cnc4ccc(-c5cccc(Nc6ccccn6)c5)cc4c23)cc1 [Compound 1120, 2-methyl-2-(4-(8-(3-(pyridin-2-ylamino)phenyl)-3H-pyrazolo[3,4-c]quinolin-1-yl)phenyl)propanenitrile] |  |  |  | > 0.02 |  | 
2 | CC(C)(C#N)c1ccc(-c2n[nH]c3cnc4ccc(-c5cncnc5)cc4c23)cc1 [Compound 1108, 2-methyl-2-(4-(8-(pyrimidin-5-yl)-3H-pyrazolo[3,4-c]quinolin-1-yl)phenyl)propanenitrile] | 0.012 to 0.02 µM and > 0.03 µM | 60 to 85 | > 97 | < 0.01 | > 0.1 | 
3 | CN[C@@H]1C[C@H]2O[C@@](C)([C@@H]1OC)n1c3ccccc3c3c4c(c5c6ccccc6n2c5c31)C(=O)NC4 [staurosporine] |  |  |  |  |  | 0.007
4 | Cc1ccccc1-c1ccc2ncc3[nH]nc(-c4ccc(C(C)(C)C#N)cc4)c3c2c1 [Compound 1124, 2-methyl-2-(4-(8-o-tolyl-3H-pyrazolo[3,4-c]quinolin-1-yl)phenyl)propanenitrile] | > 0.03 µM |  | > 60 |  |  | 
5 | Cc1ccc(-c2ccc3ncc4[nH]nc(-c5ccc(C(C)(C)C#N)cc5)c4c3c2)cc1 [Compound 1126, 2-methyl-2-(4-(8-p-tolyl-3H-pyrazolo[3,4-c]quinolin-1-yl)phenyl)propanenitrile] | > 0.03 µM |  |  |  |  | 
6 | COc1ccc(-c2ccc3ncc4[nH]nc(-c5ccc(C(C)(C)C#N)cc5)c4c3c2)cc1 [Compound 1117, 2-(4-(8-(4-methoxyphenyl)-3H-pyrazolo[3,4-c]quinolin-1-yl)phenyl)-2-methylpropanenitrile] | > 0.03 µM | 60 to 85 | > 50 |  |  | 
7 | CC(C)(C#N)c1ccc(-c2n[nH]c3cnc4ccc(-c5ccccc5)cc4c23)cc1 [Compound 1125, 2-methyl-2-(4-(8-phenyl-3H-pyrazolo[3,4-c]quinolin-1-yl)phenyl)propanenitrile] | > 0.03 µM | 60 to 85 | ≥ 75 |  | > 1 | 
8 | Cc1cccc(-c2ccc3ncc4[nH]nc(-c5ccc(C(C)(C)C#N)cc5)c4c3c2)c1 [Compound 1123, 2-methyl-2-(4-(8-m-tolyl-3H-pyrazolo[3,4-c]quinolin-1-yl)phenyl)propanenitrile] | > 0.03 µM | 50 to 60 | > 60 |  | > 1 | 

Continued, in another order:

Row | IC50 (MELK) | inhibition at 1 µM (PIM-1) [%] | inhibition at 1 µM (TRKC) [%] | IC50 (PI3Kα) [µM] | IC50 (PDGFRα(D842V)) [µM] | Compound | EC50 [1] [µM]
9 | 0.02 to 0.03 µM | > 95 | > 97 | > 0.02 |  | CC(C)(C#N)c1ccc(-c2n[nH]c3cnc4ccc(-c5ccn6ncnc6c5)cc4c23)cc1 [Compound 1111] | 
10 | > 0.03 µM | 60 to 85 | ≥ 75 |  |  | CC(C)(C#N)c1ccc(-c2n[nH]c3cnc4ccc(-c5ccc(F)cc5)cc4c23)cc1 [Compound 1116, 2-(4-(8-(4-fluorophenyl)-3H-pyrazolo[3,4-c]quinolin-1-yl)phenyl)-2-methylpropanenitrile] | 
11 | > 0.03 µM | 60 to 85 | > 60 |  | > 1 | COc1cccc(-c2ccc3ncc4[nH]nc(-c5ccc(C(C)(C)C#N)cc5)c4c3c2)c1 [Compound 1115, 2-(4-(8-(3-methoxyphenyl)-3H-pyrazolo[3,4-c]quinolin-1-yl)phenyl)-2-methylpropanenitrile] | 
12 | > 0.03 µM |  |  | < 0.01 | > 1 | COc1ccc(-c2ccc3ncc4[nH]nc(-c5ccc(C(C)(C)C#N)cc5)c4c3c2)cn1 [Compound 1118, 2-(4-(8-(6-methoxypyridin-3-yl)-3H-pyrazolo[3,4-c]quinolin-1-yl)phenyl)-2-methylpropanenitrile] | 
13 | 0.012 to 0.02 µM | > 95 | > 97 | > 0.02 | > 0.1 | CC(C)(C#N)c1ccc(-c2n[nH]c3cnc4ccc(-c5cccc(Nc6ccncc6)c5)cc4c23)cc1 [Compound 1121, 2-methyl-2-(4-(8-(3-(pyridin-4-ylamino)phenyl)-3H-pyrazolo[3,4-c]quinolin-1-yl)phenyl)propanenitrile] | 
14 | > 0.03 µM |  | ≥ 75 |  | > 0.1 | CC(C)(C#N)c1ccc(-c2n[nH]c3cnc4ccc(-c5cc(F)cc(F)c5)cc4c23)cc1 [Compound 1112, 2-(4-(8-(3,5-difluorophenyl)-3H-pyrazolo[3,4-c]quinolin-1-yl)phenyl)-2-methylpropanenitrile] | 
15 | > 0.03 µM | 50 to 60 | ≥ 70 |  | > 0.1 | CC(C)(C#N)c1ccc(-c2n[nH]c3cnc4ccc(-c5cccc(Cl)c5)cc4c23)cc1 [Compound 1113, 2-(4-(8-(3-chlorophenyl)-3H-pyrazolo[3,4-c]quinolin-1-yl)phenyl)-2-methylpropanenitrile] | 
16 | > 0.03 µM |  |  | > 0.02 | > 0.1 | CC(C)(C#N)c1ccc(-c2n[nH]c3cnc4ccc(-c5ccc6c(c5)CC=N6)cc4c23)cc1 [Compound 1114, 2-(4-(8-(3H-indol-5-yl)-3H-pyrazolo[3,4-c]quinolin-1-yl)phenyl)-2-methylpropanenitrile] | 

— patent publication US20110212053A1, “PHOSPHATIDYLINOSITOL 3 KINASE INHIBITORS” (priority 2008, published 2011)
